Results taken from patent US20250353873A1, “COMPOUNDS AND METHODS FOR MODULATING APOE EXPRESSION” (Ionis Pharmaceuticals, Inc., priority 2024, published 2025).
Strand notation (5' to 3'): a small letter for the sugar, then the base; units joined by * are phosphorothioate-linked, units joined directly phosphodiester-linked; [ ] holds rarer units or linkages, { } end groups; capitals alone tell only the bases. [ms] = mesyl phosphoramidate linkage; e = 2'-O-(2-methoxyethyl) (MOE); k = constrained ethyl (cEt); [5mC] = 5-methylcytosine; d = 2'-deoxy (DNA)

Columns and labels:
human APOE RNA [1] = assay: Dose-dependent inhibition of human APOE RNA in differentiated SH-SY5Y cells, free uptake, 5 days (Example 5); type: cell-based; conditions: 5 days (Table 14)
Outline: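 Differentiated SH-SY5Y cells (10,000/well) treated by free uptake with graded oligonucleotide concentrations for 5 days. APOE RNA quantified with primer probe set RTS3073, normalized to PPIA, expressed as % untreated control; IC50 calculated.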

human APOE RNA [2] = assay: Dose-dependent reduction of human APOE RNA in HepG2 cells, electroporation, 20,000 cells per well, average of GAPDH- and PPIA-normalized results (Example 4, Table 12); type: cell-based; conditions: HepG2, 20,000 cells per well
Outline: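 Modified oligonucleotides at various concentrations were electroporated into HepG2 cells. APOE RNA was quantified by RT-qPCR, normalized separately to GAPDH and PPIA, and the two averaged as % of untreated control; IC50 was calculated from the dose series.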

human APOE RNA [3] = assay: Activity in APOE C57BL/6NTac-Apoeem7250 knock-in mice, single ICV bolus, 16 weeks (Example 12); type: in vivo; conditions: single ICV bolus 300 μg, 16 weeks post treatment, normalized to mouse Ppia
Outline: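 Knock-in mice (3-4 per group) received one ICV bolus of 300 μg oligonucleotide, PBS as control. After 16 weeks, human APOE RNA in cortex and spinal cord measured by RT-qPCR, normalized to mouse Ppia, and reported as % of PBS control.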

human APOE RNA [4] = assay: Activity in APOE C57BL/6NTac-Apoeem7250 knock-in mice, single ICV bolus, 8 weeks (Example 11); type: in vivo; conditions: single ICV bolus 300 μg, 8 weeks post treatment, normalized to mouse Ppia
Outline: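 Human APOE knock-in C57BL/6NTac mice given one ICV bolus of 300 μg oligonucleotide; PBS-dosed group as control. At 8 weeks, cortex and spinal cord RNA measured by qRT-PCR (human probe RTS3073), normalized to mouse Ppia, expressed as % of PBS control.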

human APOE RNA [5] = assay: Activity in APOE C57BL/6NTac-Apoeem7250 knock-in mice, single ICV bolus, 4 weeks (Example 10); type: in vivo; conditions: single ICV bolus 300 μg, 4 weeks post treatment, normalized to mouse Ppia
Outline: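 Knock-in mice (2–4 per group) received one 300 μg ICV bolus of oligonucleotide or PBS. After four weeks, human APOE RNA in cortex and spinal cord measured by RT-qPCR (primer probe set RTS3073), normalized to mouse Ppia, expressed as % of PBS controls.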

human APOE RNA [6] = assay: Activity in APOE C57BL/6NTac-Apoeem7250 knock-in mice, single ICV bolus, 20 weeks (Example 13); type: in vivo; conditions: single ICV bolus 300 μg, 20 weeks post treatment, normalized to mouse Ppia
Outline: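 Knock-in mice (n=4) given a single ICV bolus of 300 μg oligonucleotide, PBS as control. After 20 weeks, human APOE RNA in cortex and spinal cord measured by RT-qPCR, normalized to mouse Ppia, expressed as % of PBS-treated animals.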

1778131: modified oligonucleotide complementary to human APOE RNA (eA*e[5mC]eTeTeGkG*dT*dG[ms]dA[ms]dA*dT*d[5mC]*dT*dT*dT*dA[ms]kTkT*eA*eA; antisense) [compound 1778131]
APOE RNA (% UTC) (human APOE RNA [1]; 5 nM): 69 % UTC | APOE RNA (% UTC) (human APOE RNA [1]; 13 nM): 103 % UTC | APOE RNA (% UTC) (human APOE RNA [1]; 33 nM): 89 % UTC | APOE RNA (% UTC) (human APOE RNA [1]; 82 nM): 69 % UTC | APOE RNA (% UTC) (human APOE RNA [1]; 205 nM): 64 % UTC | APOE RNA (% UTC) (human APOE RNA [1]; 512 nM): 31 % UTC | APOE RNA (% UTC) (human APOE RNA [1]; 1,280 nM): 45 % UTC | APOE RNA (% UTC) (human APOE RNA [1]; 3,200 nM): 55 % UTC | APOE RNA (% UTC) (human APOE RNA [1]; 8,000 nM): 25 % UTC | APOE RNA (% UTC) (human APOE RNA [1]; 20,000 nM): 12 % UTC | IC50 (human APOE RNA [1]): 690 nM | APOE RNA (% UTC) (human APOE RNA [2]; 5 nM): 102 % UTC | APOE RNA (% UTC) (human APOE RNA [2]; 13 nM): 86 % UTC | APOE RNA (% UTC) (human APOE RNA [2]; 33 nM): 85 % UTC | APOE RNA (% UTC) (human APOE RNA [2]; 82 nM): 70 % UTC | APOE RNA (% UTC) (human APOE RNA [2]; 205 nM): 56 % UTC | APOE RNA (% UTC) (human APOE RNA [2]; 512 nM): 36 % UTC | APOE RNA (% UTC) (human APOE RNA [2]; 1,280 nM): 25 % UTC | APOE RNA (% UTC) (human APOE RNA [2]; 3,200 nM): 25 % UTC | APOE RNA (% UTC) (human APOE RNA [2]; 8,000 nM): 5 % UTC | APOE RNA (% UTC) (human APOE RNA [2]; 20,000 nM): 6 % UTC | IC50 (human APOE RNA [2]; approximately 24 hours): 290 nM | APOE RNA (% control) Cortex (human APOE RNA [3]; cortex): 34 % control | APOE RNA (% control) Spinal Cord (human APOE RNA [3]; spinal cord): 17 % control | APOE RNA (% control) Cortex (human APOE RNA [4]; cortex): 29 % control | APOE RNA (% control) Spinal Cord (human APOE RNA [4]; spinal cord): 24 % control | APOE RNA (% control) Cortex (human APOE RNA [5]; cortex): 29 % control | APOE RNA (% control) Spinal Cord (human APOE RNA [5]; spinal cord): 49 % control | APOE RNA (% control) Cortex (human APOE RNA [6]; cortex): 65 % control | APOE RNA (% control) Spinal Cord (human APOE RNA [6]; spinal cord): 43 % control
